Here are results for 2 compounds from the NIST ThermoML archive (doi:10.1021/acs.jced.8b01110).

Data set [1] can be described thus: refractive index (Na D-line) (dimensionless); wn = mass fraction of the nth substance listed. As to conditions: 313.15 K, 88.4 kPa, Liquid, Standard Abbe refractometry.
Data set [2] can be described thus: wn = mass fraction of the nth substance listed. To be noted: 313.15 K, 88.4 kPa, Liquid; for viscosity: Capillary tube (Ostwald / Ubbelohde) method; for mass density: Pycnometric method.

SMILES strings stand for the structures. ± gives the expanded uncertainty stated by the source.

By refractive index is commonly meant the speed of light in vacuum divided by its phase velocity in the sample. A word on the viscosity: it is the internal friction of a fluid under shear. Usually mass density stands for mass per unit of volume. As for `O=[N+]([O-])[O-].[Na+]` [sodium nitrate] + O, in data set [1] (w1 = 0.5082), the refractive index is 1.39164 ± 0.00086. In data set [2] (w1 = 0.5082), the viscosity came to 2.14 ± 0.43 mPa·s and the mass density worked out at 1408.4 ± 10 kg/m3.
As for `O=S(=O)([O-])[O-].[Na+].[Na+]` [sodium sulfate] + O, in data set [1] (w1 = 0.3289), the refractive index is reported as 1.37791 ± 0.00085. Also, in data set [2] (w1 = 0.3289), the viscosity is 2.703 ± 0.54 mPa·s and the mass density is on record as 1317 ± 10 kg/m3.
